Laboratory results published in PMC10002220, “In Vivo Reversal of P-Glycoprotein-Mediated Drug Resistance in a Breast Cancer Xenograft and in Leukemia Models Using a Novel, Potent, and Nontoxic Epicatechin EC31” (International Journal of Molecular Sciences, 2023).
Read-outs that look alike come from different tables or passages of the source.

Key:
[1] = test system: K562/P-gp cells; experiment: Drug resistance level: IC50 of anticancer drugs in K562/P-gp; format: cell-based, human
Protocol: (§1) In the Western blot membrane, the total P-gp and β-actin expression in each lane was quantified with ImageJ software. The relative P-gp expression was an intensity ratio of P-gp band relative to the β-actin band. The relative P-gp expression of the resistant cell line relative to its respective wild type was presented as a bar chart. The plasma membrane P-gp levels of LCC6MDR and K562/P-gp relative to their wild types were determined through flow cytometry using antihuman P-gp-PE antibodies. (B) LCC6MDR and LCC6. (C) K562/P-gp and K562. (D) the drug resistance levels of three P-gp-overexpressing cell lines and their wild types were studied. The 3 pairs of cell lines were incubated with anticancer drugs paclitaxel (PTX), doxorubicin (DOX), and vincristine (VCR) for 3 days, and the % of cell survival was then determined. Their IC50 (nM) values were calculated using Prism 5.0. RF (relative fold) was a ratio of IC50 of anticancer drugs in a P-gp-overexpressing cell line relative to its respective wild type. N = 3 independent experiments. […] All cell lines were counterstained with DAPI. (E) LCC6 and LCC6MDR, (F) P388 and P338ADR, and (G) K562 and K562/P-gp. Bar = 8 µm. / = not determined.

[2] = test system: K562 cells; experiment: Drug resistance level: IC50 of anticancer drugs in K562; format: cell-based; details: Homo sapiens, K562, 72 h; 3 days incubation
Protocol: as §1

[3] = target: T1, P-gp (Homo sapiens, UniProt P08183); experiment: EC50 for reversing drug resistance in K562/P-gp cells (cell proliferation assay); details: EC50 for Reversing MDR
Source text: (§2) EC50 was defined as the concentration at which the modulator can reduce the IC50 of an anticancer drug by half in the P-gp-overexpressing cell lines. […] The P-gp-modulating activity of methylated catechin derivatives was further studied by measuring the EC50. […] Three P-gp-overexpressing cell lines were employed, including breast cancer cell line LCC6MDR, mouse leukemia cell line P388ADR, and human leukemia cell line K562/P-gp. The anticancer drugs tested included DOX, PTX, and VCR. All values were presented as mean ± standard error of mean. N = 3–6 independent experiments.
(§3) About 6500 cells of LCC6MDR or 10,000 cells of P388ADR or K562/P-gp were seeded to each well of 96-well plate and were then incubated at 37 °C overnight. […] Cell viability was determined using CellTiter 96 AQueous Assay (Promega, Madison, WI, USA, #G1111) as reported previously [38]. The % of cell survival, IC50 of anticancer drugs towards the cell line, and EC50 of modulators were analyzed using nonlinear regression in Prism 5.0.

[4] = test system: P-gp; experiment: DOX efflux in P388ADR cells; format: cell-based, mouse; details: 1 µM modulator; after 180 min of efflux; P388ADR preloaded with 20 µM DOX
Protocol: Figure 2 Effect of methylated catechin derivatives on intracellular DOX accumulation and DOX efflux in the P-gp-overexpressing cancer cells. […] Then, the cells were washed, and the intracellular DOX level was measured using flow cytometer. (A) LCC6MDR, (B) P388ADR, and (C) K562/P-gp. […] (D) In the efflux study, P388ADR cells were firstly incubated with 20 µM DOX for 45 min. […] At 60, 120, and 180 min, the cells were harvested, and the intracellular DOX level was measured. At 180 min, ** represents p < 0.01, and *** represents p < 0.001, both being relative to P388ADR incubated with DMSO only. […] N = 3 independent experiments. DMSO was used as a solvent control, and the highest amount used was 0.5%.
We investigated if methylated catechin derivatives could inhibit P-gp-mediated drug efflux in P-gp-overexpressing cells. […] Without a modulator, intracellularly, the DOX level was maintained at 80% and 11% after 180 min for P388 and P388ADR cells, respectively (Figure 2D). […] After 180 min of efflux, the intracellular DOX level could be maintained at 61% (p < 0.001), 59% (p < 0.01), 44 % (p < 0.001), and 37%, respectively (Figure 2D).

[5] = target: T1, P-gp; experiment: EC50 for reversing drug resistance in LCC6MDR cells (cell proliferation assay); details: EC50 for Reversing MDR, LCC6MDR
Source text: as §2, §3

[6] = Pharmacokinetics of methylated catechin derivatives in plasma; format: in vivo, BALB/c mice; details: BALB/c, mouse; for AUC(0-inf): read-out: AUC0-infinity (converted)
Protocol: Figure 4 Pharmacokinetics of methylated catechin derivatives and their effects on the PK of PTX. BALB/c mice were i.v. injected with 10 mg/kg or i.p. injected with 30 mg/kg of modulators. At 10, 30, 60, 180, 420, 840, and 1080 min postadministration, animals were sacrificed to collect their blood, and then the plasma concentration of modulator was determined using UPLC-MS/MS. The % of bioavailability of each modulator injected through i.p. injection route was calculated by comparing it to its plasma level when injected via i.v. injection. […] (E) Pharmacokinetic (PK) profiles of 4 potent methylated catechin derivatives were summarized. (F) The effect of modulators (GC51, EC31, or C25) on the PK of PTX was firstly determined through i.p. injection of modulator at 30 mg/kg 1 h prior to i.v. injection of 12 mg/kg PTX. At 10, 30, 60, 120, 240, and 420 min postadministration of PTX, animals were sacrificed. Plasma level of PTX was quantified through LC/MSMS. The dashed line indicates the corresponding EC50 of modulator in vitro for reversing PTX resistance. […] There were 3 mice at each time point. All pharmacokinetic parameters were calculated with the pharmacokinetic software Summit® PK solution. Two-tailed test was conducted for the AUC value of PTX alone and cotreatment. […] N.S. = not significant. / = not applicable.
In group 1, BALB/c mice were injected intravenously (i.v.) with 10 mg/kg of modulator, and their blood was collected at 10, 30, 60, 120, 240, and 480 min postadministration. In group 2, BALB/c mice were injected intraperitoneally (i.p.) with 30 mg/kg of modulator, and their blood was collected at 10, 30, 60, 180, 420, 840, and 1080 min postadministration.
The pharmacokinetics of PTX was studied with or without the coadministered modulator. PTX (12 mg/kg i.v.) alone was injected into the BALB/c mice. For the combination study, modulator (30 mg/kg i.p.) was injected 1 h before injecting PTX (12 mg/kg i.v.). The blood was collected at 10, 30, 60, 120, 240, and 420 min after PTX administration. Blood samples were spun at 14,000 rpm for 10 min at 4 °C to collect plasma supernatant. Plasma concentration of methylated catechin derivatives or PTX was determined through UPLC-QQQ-MS as described in Section 4.9. Pharmacokinetic parameters were analyzed with PK Solutions 2.0 (Summit Research Service, Ashland, OH, USA).

[7] = test system: P-gp; experiment: EC50 for reversing drug resistance in P388ADR cells (cell proliferation assay)
Source text: as §2, §3

[8] = test system: MRP1; details: Cpds at 1 μM; IC50 of DOX without/with modulator; cited from earlier work
[9] = target: T1, P-gp; set-up: expressed in transfected cells; host or cells: MDA435/LCC6MDR (human breast cancer line, gift of Dr. Robert Clarke); details: Cpds at 1 μM; IC50 of PTX without/with modulator; cited from earlier work
[10] = target: T1, P-gp; experiment: Vanadate-sensitive P-gp ATPase activity assay (P-gp-Glo); details: 70 µM
Protocol: (A) Effect of EC31 on vanadate-sensitive P-gp ATPase was studied. EC31, C25, and EGCG at different concentrations (10, 50, and 70 µM) were incubated with recombinant human P-gp microsomes and MgATP with or without sodium vanadate. After stopping the reaction, the remaining ATP level was determined by measuring the luciferase-generated luminescent signal. Vanadate-inhibitable P-gp ATPase activity was determined by calculating the luminescence signal in the samples with or without sodium vanadate. […] P-gp ATPase activity caused by compounds was normalized to basal P-gp ATPase activity (human P-gp microsome treated with DMSO) and was presented as fold change. A dashed line at 1.0-fold change represented the basal P-gp ATPase activity. […] The values in this figure were presented as mean ± standard error of mean. N = 3 independent experiments.
P-gp ATPase activity was measured with P-gp-Glo assay system (Promega, #V3601) with human P-gp membrane vesicles as reported previously [32]. […] The reaction was initiated by adding MgATP and was then incubated at 37 °C for 1 h. […] The remaining ATP signal of luminescence was measured with a Clariostar microplate reader (BMG Labtech, Ortenberg, Germany). Vanadate-inhibitable P-gp ATPase activity was determined by calculating the luminescence signal in the samples with or without sodium vanadate.

[11] = test system: fibroblast cells; set-up: method as in PMID 25985195, PMID 34597896; details: cited from earlier work
[12] = test system: P-gp; set-up: method as in PMID 25985195, PMID 34597896; details: cited from earlier work
[13] = DOX Resistance, K562/P-gp, concentration that reduces IC50 of DOX by half
[14] = VCR Resistance, K562, concentration that reduces IC50 of VCR by half, column head prints K562
[15] = DOX Resistance, concentration that reduces IC50 of DOX by half
[16] = PTX Resistance, concentration that reduces IC50 of PTX by half
[17] = read-out: EC50 for Reversing MDR, DOX Resistance, P388ADR, concentration that reduces IC50 of DOX by half
[18] = read-out: EC50 for Reversing MDR, PTX Resistance, P388ADR, concentration that reduces IC50 of PTX by half

T1 sequence (P08183 whole entry): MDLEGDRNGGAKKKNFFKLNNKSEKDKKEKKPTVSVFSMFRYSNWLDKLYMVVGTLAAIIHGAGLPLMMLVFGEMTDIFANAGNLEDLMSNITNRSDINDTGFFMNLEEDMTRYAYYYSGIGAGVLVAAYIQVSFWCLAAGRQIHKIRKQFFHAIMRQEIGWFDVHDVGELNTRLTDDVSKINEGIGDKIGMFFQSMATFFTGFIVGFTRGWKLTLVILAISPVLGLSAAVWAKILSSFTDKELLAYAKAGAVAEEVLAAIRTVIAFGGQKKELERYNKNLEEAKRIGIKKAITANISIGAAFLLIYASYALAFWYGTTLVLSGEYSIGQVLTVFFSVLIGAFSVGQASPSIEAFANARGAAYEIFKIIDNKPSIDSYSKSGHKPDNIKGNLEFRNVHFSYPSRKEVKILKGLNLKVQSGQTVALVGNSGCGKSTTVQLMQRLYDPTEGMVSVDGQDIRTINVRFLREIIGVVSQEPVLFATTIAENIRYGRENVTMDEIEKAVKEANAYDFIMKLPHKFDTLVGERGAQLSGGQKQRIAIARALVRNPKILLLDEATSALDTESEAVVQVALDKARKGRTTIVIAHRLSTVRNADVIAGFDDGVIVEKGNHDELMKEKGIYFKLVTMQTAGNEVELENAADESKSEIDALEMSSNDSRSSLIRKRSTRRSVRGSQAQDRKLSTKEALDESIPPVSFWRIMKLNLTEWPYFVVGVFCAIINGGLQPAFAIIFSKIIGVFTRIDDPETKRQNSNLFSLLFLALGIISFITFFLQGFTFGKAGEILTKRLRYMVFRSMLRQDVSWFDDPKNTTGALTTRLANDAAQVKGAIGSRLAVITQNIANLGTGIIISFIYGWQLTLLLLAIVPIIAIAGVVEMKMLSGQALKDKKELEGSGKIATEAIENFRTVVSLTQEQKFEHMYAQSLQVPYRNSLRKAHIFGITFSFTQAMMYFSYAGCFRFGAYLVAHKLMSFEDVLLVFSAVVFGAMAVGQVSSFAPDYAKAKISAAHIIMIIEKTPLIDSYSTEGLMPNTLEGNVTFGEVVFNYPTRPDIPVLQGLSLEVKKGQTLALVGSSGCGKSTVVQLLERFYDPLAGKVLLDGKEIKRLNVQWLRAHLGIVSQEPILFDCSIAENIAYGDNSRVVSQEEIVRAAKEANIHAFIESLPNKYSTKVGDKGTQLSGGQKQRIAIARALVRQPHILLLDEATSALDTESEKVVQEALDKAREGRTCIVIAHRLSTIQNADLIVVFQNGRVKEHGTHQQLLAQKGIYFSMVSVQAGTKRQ

EC50 [3, 13] | EC50 [3, 14] | EC50 [5, 15] | EC50 [5, 16] | AUC(0-t) ([6]; ip, 30 mg/kg) | Cmax ([6]; ip, 30 mg/kg) | Tmax ([6]; ip, 30 mg/kg) | half-life ([6]; ip, 30 mg/kg) | AUC(0-inf) ([6]; ip, 30 mg/kg) | AUC(0-t) ([6]; iv, 10 mg/kg) | half-life ([6]; iv, 10 mg/kg) | AUC(0-inf) ([6]; iv, 10 mg/kg) | Compound | Relative intracellular DOX level (%) [4] | EC50 [7, 17] | EC50 [7, 18] | 2008MRP1 MRP1-modulating activity RF (relative fold) [8] | LCC6MDR P-gp-modulating activity RF (relative fold) [9] | other results
 |  |  |  |  |  |  |  |  |  |  |  | CC[C@]1(O)C[C@H]2CN(CCc3c([nH]c4ccccc34)[C@@](C(=O)OC)(c3cc4c(cc3OC)N(C=O)[C@H]3[C@@](O)(C(=O)OC)[C@H](OC(C)=O)[C@]5(CC)C=CCN6CC[C@]43[C@@H]65)C2)C1 [VCR, vincristine] |  |  |  |  |  | IC50 ([1]; Homo sapiens, K562, 72 h, 3 days incubation): 84.1 ± 6.4 nM; RF (relative fold) ([1]; IC50 in K562/P-gp relative to K562): 168.2; IC50 [2]: 0.5 ± 0.1 nM
129 ± 36 nM | 77 ± 7 nM | 233 ± 36 nM | 82 ± 14 nM | 24500 ng·h/mL | 6120 ng/mL | 1 h | 3.83 h | 25700 ng·h/mL | 13000 ng·h/mL | 1.52 h | 13600 ng·h/mL | COc1cc(OC)c2c(c1)O[C@H](c1cc(OC)c(OC)c(OC)c1)[C@@H](OC(=O)c1ccc(F)c(NC(=O)c3cc(OC)c(OC)c(OC)c3)c1)C2 [GC51] | 59% | 335 ± 15 nM | 496 ± 12 nM | 3.0 | 52.6 | 
93 ± 21 nM | 60 ± 12 nM | 180 ± 18 nM | 91 ± 5 nM | 21200 ng·h/mL | 5260 ng/mL | 1 h | 3.12 h | 21600 ng·h/mL | 8870 ng·h/mL | 0.85 h | 8890 ng·h/mL | COc1cc(OC)c2c(c1)O[C@H](c1ccc(OC)c(OC)c1)[C@@H](OC(=O)c1ccc(F)c(NC(=O)c3cc(OC)c(OC)c(OC)c3)c1)C2 [C25] | 37% | 260 ± 60 nM | 216 ± 10 nM | 1.2 | 84.7 | P-gp ATPase activity, fold change relative to basal [10]: ≤ 1.6 fold; IC50 [11]: > 100000 nM; effect on plasma membrane level of P-gp [12]: did not affect
 |  |  |  | […] | 2210 ng/mL | 1 h | 2.45 h | 7090 ng·h/mL | 3190 ng·h/mL | 0.538 h | 3210 ng·h/mL | COc1cc(OC)c2c(c1)OC(c1cc(OC)c(OC)c(OC)c1)C(OC(=O)C=Cc1cc(OC)c(OC)c(OC)c1)C2 (centres unmarked) [EGC23] |  | […] | […] |  |  | 
